Measured values published in ChEMBL document CHEMBL1201862, “PubChem BioAssay data set” (2004).
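Cultured in 96-well plates, cells were exposed to test compound for 48 hours across five concentrations. Here, GI50 denotes the concentration required for 50% inhibition of growth.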 The source made the active and inactive calls. Cut-off read from the data, not from the text of the source: active = GI50 up to about 1.1 µM and inactive = higher.

Key:
Assay in all cases: NCI anticancer screen, dose series, 48 h
786-0 = system: 786-0
A498 = system: A498
A549 = system: A549
ACHN = system: ACHN
BT-549 = system: BT-549
CAKI-1 = system: CAKI-1
CCRF-CEM = system: CCRF-CEM
COLO 205 = system: COLO 205
DU-145 = system: DU-145
EKVX = system: EKVX
HCC 2998 = system: HCC 2998
HCT-116 = system: HCT-116
HCT-15 = system: HCT-15
HL-60 = system: HL-60
HOP-62 = system: HOP-62
HOP-92 = system: HOP-92
HT-29 = system: HT-29
Hs-578T = system: Hs-578T
IGROV-1 = system: IGROV-1
K562 = system: K562
KM12 = system: KM12
LOX IMVI = system: LOX IMVI
M14 = system: M14
MCF7 = system: MCF7
MDA-MB-231 = system: MDA-MB-231
MDA-MB-435 = system: MDA-MB-435
MDA-N = system: MDA-N
MOLT-4 = system: MOLT-4
Malme-3M = system: Malme-3M
NCI-H226 = system: NCI-H226
NCI-H23 = system: NCI-H23
NCI-H460 = system: NCI-H460
NCI-H522 = system: NCI-H522
NCI/ADR-RES = system: NCI/ADR-RES
OVCAR-3 = system: OVCAR-3
OVCAR-4 = system: OVCAR-4
OVCAR-5 = system: OVCAR-5
OVCAR-8 = system: OVCAR-8
PC-3 = system: PC-3
RXF 393 = system: RXF 393
SF-268 = system: SF-268
SF-295 = system: SF-295
SF-539 = system: SF-539
SK-MEL-28 = system: SK-MEL-28
SK-MEL-2 = system: SK-MEL-2
SK-MEL-5 = system: SK-MEL-5
SK-OV-3 = system: SK-OV-3
SN12C = system: SN12C
SNB-19 = system: SNB-19
SNB-75 = system: SNB-75
SW-620 = system: SW-620
T47D = system: T47D
TK-10 = system: TK-10
U-251 = system: U-251
UACC-257 = system: UACC-257
UACC-62 = system: UACC-62
UO-31 = system: UO-31
RPMI-8226 = system: RPMI-8226

## COc1ccc(OC)c2c(/C=C/c3ccc(N(C)C)cc3)ccnc12
786-0
  GI50: 4.01 µM (inactive)
A498
  GI50: > 10 µM (inactive)
A549
  GI50: > 10 µM (inactive)
ACHN
  GI50: 4.68 µM (inactive)
BT-549
  GI50: > 10 µM (inactive)
CAKI-1
  GI50: > 10 µM (inactive)
CCRF-CEM
  GI50: 2.48 µM (inactive)
COLO 205
  GI50: > 10 µM (inactive)
DU-145
  GI50: > 10 µM (inactive)
EKVX
  GI50: > 10 µM (inactive)
HCC 2998
  GI50: > 10 µM (inactive)
HCT-116
  GI50: 3.53 µM (inactive)
HCT-15
  GI50: > 10 µM
HL-60
  GI50: 1.91 µM (inactive)
HOP-62
  GI50: > 10 µM (inactive)
HOP-92
  GI50: 5.87 µM (inactive)
HT-29
  GI50: 4.11 µM (inactive)
Hs-578T
  GI50: 8.15 µM (inactive)
IGROV-1
  GI50: > 10 µM (inactive)
K562
  GI50: > 10 µM (inactive)
KM12
  GI50: > 10 µM (inactive)
LOX IMVI
  GI50: 2.94 µM (inactive)
M14
  GI50: 7.36 µM (inactive)
MCF7
  GI50: 3.52 µM (inactive)
MDA-MB-231
  GI50: 8.34 µM (inactive)
MDA-MB-435
  GI50: 5.21 µM (inactive)
MDA-N
  GI50: 5.24 µM (inactive)
MOLT-4
  GI50: 6.68 µM (inactive)
Malme-3M
  GI50: 4.51 µM (inactive)
NCI-H226
  GI50: > 10 µM (inactive)
NCI-H23
  GI50: > 10 µM (inactive)
NCI-H460
  GI50: 9.68 µM (inactive)
NCI-H522
  GI50: 8.02 µM (inactive)
NCI/ADR-RES
  GI50: > 10 µM (inactive)
OVCAR-3
  GI50: > 10 µM (inactive)
OVCAR-4
  GI50: 4.32 µM (inactive)
OVCAR-5
  GI50: > 10 µM (inactive)
OVCAR-8
  GI50: > 10 µM (inactive)
PC-3
  GI50: > 10 µM (inactive)
RXF 393
  GI50: > 10 µM (inactive)
SF-268
  GI50: > 10 µM (inactive)
SF-295
  GI50: > 10 µM (inactive)
SF-539
  GI50: 2.77 µM (inactive)
SK-MEL-28
  GI50: 3.3 µM (inactive)
SK-MEL-2
  GI50: > 10 µM (inactive)
SK-MEL-5
  GI50: > 10 µM (inactive)
SK-OV-3
  GI50: > 10 µM (inactive)
SN12C
  GI50: 8.05 µM (inactive)
SNB-19
  GI50: > 10 µM (inactive)
SNB-75
  GI50: 6.53 µM (inactive)
SW-620
  GI50: > 10 µM (inactive)
T47D
  GI50: > 10 µM (inactive)
TK-10
  GI50: 5.58 µM (inactive)
U-251
  GI50: 5.31 µM (inactive)
UACC-257
  GI50: 4 µM (inactive)
UACC-62
  GI50: 3.01 µM (inactive)
UO-31
  GI50: 4.67 µM (inactive)

## O=C(Nc1ccccc1)c1cc(S(=O)(=O)Nc2nc3cccnc3[nH]2)c(SSc2cc(Cl)c(C(=O)Nc3ccccc3)cc2S(=O)(=O)Nc2nc3cccnc3[nH]2)cc1Cl
786-0
  GI50: > 100 µM (inactive)
A498
  GI50: > 100 µM (inactive)
A549
  GI50: > 100 µM (inactive)
ACHN
  GI50: > 100 µM (inactive)
BT-549
  GI50: > 100 µM (inactive)
CAKI-1
  GI50: > 100 µM (inactive)
CCRF-CEM
  GI50: > 100 µM (inactive)
COLO 205
  GI50: > 100 µM (inactive)
DU-145
  GI50: > 100 µM (inactive)
EKVX
  GI50: > 100 µM (inactive)
HCC 2998
  GI50: > 100 µM (inactive)
HCT-116
  GI50: > 100 µM (inactive)
HCT-15
  GI50: > 100 µM
HL-60
  GI50: > 100 µM (inactive)
HOP-62
  GI50: > 100 µM (inactive)
HOP-92
  GI50: > 100 µM (inactive)
HT-29
  GI50: > 100 µM (inactive)
Hs-578T
  GI50: > 100 µM (inactive)
IGROV-1
  GI50: > 100 µM (inactive)
K562
  GI50: > 100 µM (inactive)
KM12
  GI50: > 100 µM (inactive)
LOX IMVI
  GI50: > 100 µM (inactive)
M14
  GI50: > 100 µM (inactive)
MCF7
  GI50: > 100 µM (inactive)
MDA-MB-231
  GI50: > 100 µM (inactive)
MDA-MB-435
  GI50: > 100 µM (inactive)
MDA-N
  GI50: > 100 µM (inactive)
MOLT-4
  GI50: > 100 µM (inactive)
Malme-3M
  GI50: > 100 µM (inactive)
NCI-H226
  GI50: > 100 µM (inactive)
NCI-H23
  GI50: > 100 µM (inactive)
NCI-H460
  GI50: > 100 µM (inactive)
NCI-H522
  GI50: > 100 µM (inactive)
NCI/ADR-RES
  GI50: > 100 µM (inactive)
OVCAR-3
  GI50: > 100 µM (inactive)
OVCAR-4
  GI50: > 100 µM (inactive)
OVCAR-5
  GI50: > 100 µM (inactive)
OVCAR-8
  GI50: > 100 µM (inactive)
PC-3
  GI50: > 100 µM (inactive)
RPMI-8226
  GI50: > 100 µM (inactive)
RXF 393
  GI50: > 100 µM (inactive)
SF-268
  GI50: > 100 µM (inactive)
SF-295
  GI50: > 100 µM (inactive)
SF-539
  GI50: > 100 µM (inactive)
SK-MEL-28
  GI50: > 100 µM (inactive)
SK-MEL-2
  GI50: > 100 µM (inactive)
SK-MEL-5
  GI50: > 100 µM (inactive)
SK-OV-3
  GI50: > 100 µM (inactive)
SN12C
  GI50: > 100 µM (inactive)
SNB-19
  GI50: > 100 µM (inactive)
SNB-75
  GI50: > 100 µM (inactive)
SW-620
  GI50: > 100 µM (inactive)
T47D
  GI50: > 100 µM (inactive)
TK-10
  GI50: > 100 µM (inactive)
U-251
  GI50: > 100 µM (inactive)
UACC-257
  GI50: > 100 µM (inactive)
UACC-62
  GI50: > 100 µM (inactive)
UO-31
  GI50: > 100 µM (inactive)
